According to the CheMixHub viscosity set:

Assay: xn = mol fraction of the nth substance listed

CC1CCCCC1 + CCCCCCCCCC
viscosity [mPa·s], 101 kPa
Settings | 293.15 K | 298.15 K | 303.15 K | 308.15 K
x1 = 0.0406 | 0.9179 | 0.8528 | 0.7888 | –
x1 = 0.1014 | – | 0.843 | 0.787 | 0.731
x1 = 0.2029 | 0.879 | 0.8207 | 0.76 | –
x1 = 0.2034 | – | 0.824 | 0.77 | 0.716
x1 = 0.2805 | 0.8623 | 0.8054 | 0.747 | –
x1 = 0.3035 | – | 0.806 | 0.753 | 0.7
x1 = 0.3569 | 0.8458 | 0.7898 | 0.7352 | –
x1 = 0.4055 | – | 0.787 | 0.735 | 0.684
x1 = 0.4409 | 0.8287 | 0.7729 | 0.723 | –
x1 = 0.5004 | – | 0.769 | 0.719 | 0.669
x1 = 0.5991 | 0.7985 | 0.7421 | 0.7008 | –
x1 = 0.5998 | – | 0.751 | 0.702 | 0.654
x1 = 0.6756 | 0.7845 | 0.7282 | 0.6906 | –
x1 = 0.7041 | – | 0.731 | 0.684 | 0.637
x1 = 0.7618 | 0.7694 | 0.7135 | 0.6796 | –
x1 = 0.8039 | – | 0.713 | 0.667 | 0.621
x1 = 0.8475 | 0.7548 | 0.7009 | 0.6683 | –
x1 = 0.8993 | – | 0.695 | 0.651 | 0.606
x1 = 0.9148 | 0.7428 | 0.6913 | 0.6592 | –

CCCCCl + CCCCO
viscosity [mPa·s], 101 kPa
Settings | x1 = 0.0749 | x1 = 0.2028 | x1 = 0.3021 | x1 = 0.4122 | x1 = 0.5016 | x1 = 0.6048 | x1 = 0.7044 | x1 = 0.8062 | x1 = 0.9064
298.15 K | 2.121 | 1.523 | – | 0.9486 | – | 0.6572 | 0.5679 | 0.4955 | 0.4465
313.15 K | 1.449 | 1.081 | 0.8789 | 0.7145 | 0.6192 | 0.5213 | 0.4589 | 0.4114 | 0.3742

Cc1cccc([N+](=O)[O-])c1 + Cc1ccccc1
303.15 K, 101.33 kPa
Settings | viscosity [mPa·s]
x1 = 0.201 | 0.63
x1 = 0.406 | 0.8
x1 = 0.603 | 1
x1 = 0.8 | 1.33

Cc1cccc([N+](=O)[O-])c1 + Cc1ccc(C)cc1
308.15 K, 101.33 kPa
Settings | viscosity [mPa·s]
x2 = 0.1004 | 1.322
x2 = 0.2046 | 1.122
x2 = 0.2963 | 1.004
x2 = 0.4016 | 0.908
x2 = 0.4954 | 0.846
x2 = 0.6076 | 0.768
x2 = 0.7023 | 0.706
x2 = 0.8036 | 0.649
x2 = 0.8975 | 0.6

Cc1ccccc1[N+](=O)[O-] + CO
298.15 K, 101 kPa
Settings | viscosity [mPa·s]
x1 = 0.0021 | 0.5422
x1 = 0.0086 | 0.55
x1 = 0.0163 | 0.5579
x1 = 0.0287 | 0.5756
x1 = 0.0599 | 0.621
x1 = 0.0842 | 0.6536
x1 = 0.148 | 0.7466
x1 = 0.1606 | 0.7653
x1 = 0.2493 | 0.894
x1 = 0.2659 | 0.919
x1 = 0.3726 | 1.075
x1 = 0.4073 | 1.119
x1 = 0.4479 | 1.172
x1 = 0.5681 | 1.334
x1 = 0.6575 | 1.457
x1 = 0.7936 | 1.656
x1 = 0.8543 | 1.76
x1 = 0.9606 | 1.982
